How the values were obtained:
TNF-α = TNF-α ELISA in LPS-stimulated PBMC-derived monocytes; assay type: cell-based, human; details: LPS 10 ng/ml 2 hrs, starved 1 hr, 4 uM for 2 hrs, ELISA of culture medium
Method: PBMC (peripheral blood mononuclear cell) was separated from the blood samples (50 ml) collected from healthy subjects using Ficoll-Paque™ PLUS (CYTIVA™, Piscataway, N.J., USA). PBMCs were then enriched in complete RPMI 1640 medium containing 20% of human serum, followed by transferring to 100 mm polystyrene cell culture plate coated with human serum for 30 mins. […]
To see the effect of PEP-1 on TNF-α level in terms of protein expression level. […] After culturing, cell soup was collected, and the amount of TNF-α was measured using ELISA kit (R&D, Minneapolis, Minn., USA) as follows:
TNF measurement uses sandwich ELISA method. […] Again, plate was washed, and avidin/biotin was added for measuring the absorbance. TNF-α level of each sample was quantified using the standard graph calculated from the absorbance of standard solution.
PBMC-derived monocytes were stimulated with endotoxin LPS (10 ng/ml) for 2 hrs, starved for 1 hr using OPTI-MEM®, and then 4 uM of FITC, FITC-TAT, PEP 1-FITC and FITC-PEP 1 were treated for 2 hrs. After incubation, TNF-α level was measured with cell culture medium using ELISA.

neural stem cells = assay: Amyloid-β toxicity assessment on neural stem cells; assay type: cell-based, rat; details: 20 μM amyloid-β protein, 48 hours
Method: After removing the cortex from the head of an embryonic rat that had been pregnant for 13 days, it was cultured for a week with Basic Fibroblast Growth Factor (bFGF) to obtain the neural stem cells. To analyze the effects of the amyloid-β protein on the neural stem cells, the pre-oligomerized amyloid-β protein of concentrations 0 to 40 μM was treated on neural stem cells for 48 hours, then CCK-8 assay, BrdU, and TUNEL assay were used for cytotoxicity assessment (refer from BA Yankner et al, 1990 and K N Dahlgren et al, 2002).

HMGB1 = assay: 2D-electrophoresis protein expression in neural stem cells; assay type: cell-based, rat; details: 20 ug β-amyloid treated group, versus negative control 1.0
Method: (§1) Protein expression level of PEP-1 treated group and untreated group was analyzed by 2D-electrophoresis technique and antibody microarray technique. Prepared 200 μg by extracting proteome from the neural stem cells cultured in Experiment 3-1 of Example 3. In addition, the group in which PEP-1 was not treated was used as the comparison group in the same condition.
(§2) 2D-electrophoresis was performed using 12% acrylamide gels. First gel electrophoresis was performed at PI 4˜10 N, using a gel size of 8.5×7 cm. After electrophoresis, it was dyed with Colloidal Coomassie Blue, and then compared expression by using PDQuest software to analyze each spot.
(§3) Difference in the expression levels of more than 1.5 times was identified using MALDI-TOF MS (Matrix Desorption/Ionization Time of Flight Mass Spectromestry). Among these, proteins correlated with inflammation-related signaling, such as i-NOS and HMGB-1 were identified (Refer to Table 6). The changes in protein expression levels either increased or decreased by 1.5 times by amyloid-β protein, but it was confirmed that expression level was regulated close to that of negative control when PEP-1 was added (Refer to FIGS. 14A-14B).
(§4) The Table 6 below is an analysis of expression levels of proteins associated with inflammation by 2D electrophoresis technique. The control group represents protein expression level of cells that were not treated with neither amyloid-β protein nor PEP-1.

Pyk2 = assay: as above; assay type: cell-based, rat; details: 20 ug β-amyloid treated group, versus negative control 1.0
Method: as §1, §2, §3, §4

MAP Kinase = assay: as above; assay type: cell-based, rat; details: 20 ug β-amyloid treated group, versus negative control 1.0
Method: as §1, §2, §3, §4

GADD 153 = assay: as above; assay type: cell-based, rat; details: 20 ug β-amyloid treated group, versus negative control 1.0
Method: as §1, §2, §3, §4

i-NOS = assay: as above; assay type: cell-based, rat; details: 20 ug β-amyloid treated group, versus negative control 1.0
Method: as §1, §2, §3, §4

HSP 90 = assay: as above; assay type: cell-based, rat; details: 20 ug β-amyloid treated group, versus negative control 1.0
Method: as §1, §2, §3, §4

HSP 70 = assay: as above; assay type: cell-based, rat; details: 20 ug β-amyloid treated group, versus negative control 1.0
Method: as §1, §2, §3, §4

e-NOS = assay: as above; assay type: cell-based, rat; details: 20 ug β-amyloid treated group, versus negative control 1.0
Method: as §1, §2, §3, §4

Row | Substance | TNF-α level (TNF-α) [ng/mL] | cell survival (neural stem cells) [%] | HMGB1 expression (fold) (HMGB1) | Pyk2 expression (fold) (Pyk2) | MAP Kinase expression (fold) (MAP Kinase) | GADD 153 expression (fold) (GADD 153) | i-NOS expression (fold) (i-NOS) | HSP 90 expression (fold) (HSP 90) | HSP 70 expression (fold) (HSP 70) | e-NOS expression (fold) (e-NOS)
1 | Fluorescein Isothiocyanate [FITC] | 6.2 | – | – | – | – | – | – | – | – | –
2 | amyloid-β protein [reference compound] | – | 60 | −1.5 | 2.0 | 2.2 | 1.6 | 1.9 | −1.8 | −2.3 | 1.9

Source: patent US11369665B2, “Anti-inflammatory peptides and composition comprising the same” (GemVax & KAEL Co., Ltd., priority 2012, dated 2022)
